Data published in patent US8815935B2, “Inhibitors of protein prenyltransferases” (The Regents of the University of California, priority 2008, dated 2014).
Like-named read-outs stand apart in the source and are kept apart here.

Legend:
GGTase-I = biological target: T1, GGTase-I (Rattus norvegicus, UniProt P53610+Q04631); assay: In vitro GGTase-I enzyme assay (IC50, kinetics); assay type: biochemical
T1 construct: purchased JENA BIOSCIENCE
Procedure: The GGTase-I assay was carried out using RhoA as a substrate protein, GGTase-I (JENA Bioscience) and [3H]geranylgeranyl pyrophosphate. Incubation was for 30 min at 37° C. GGTase-II (or RabGGTase) assay was carried out using YPTI as a substrate protein, GGTase-II (Calbiochem, San Diego, Calif.) plus REP1 (Calbiochem) and [3H]geranylgeranyl pyrophosphate. Incubation was for 30 min at 37° C. FIGS. 20D-20F show the three dimensional structure of GGTase I (D), FTsse (E) and GGTase II (F) which can be obtained from X-ray diffraction studies of protein crystals.
GGTase-I and FTase activities were determined by following the incorporation of radiolabeled isoprenoid [^3H]-geranylgeranyl or [^3H]-farnesyl into substrate proteins. FTase or GGTase-I (50 nM) were used to initiate reactions containing 0.4 μM of [^3H]-FPP or 0.5 μM of [^3H]-GGPP and 2 μM of MBP-tagged substrates (K-Ras4B for FTase; RhoA for GGTase-I) in 20 μl of buffer {50 mM Tris-HCl (pH 7.5), 10 mM MgCl2, […] and 5 mM DTT}. Inhibitors were added at the indicated concentrations. The final DMSO concentration was 2.5% for all samples.
Reactions were carried out for 10 min at 30° C. The reaction mixture was spotted onto a filter paper, treated with 10% trichloroacetic acid (TCA) followed by ethanol and acetone washing. The filter was counted using a scintillation counter. Kinetic assays in which the GGPP concentration was varied employed fixed concentrations of GGTase-I and RhoA, and reactions were carried out for 5 min. Similarly, fixed concentrations of GGTase-I and GGPP were used when the amount of RhoA was varied.

Jurkat cells = assay: Jurkat cell growth inhibition; assay type: cell-based, human; settings: Homo sapiens, Jurkat
Procedure: In Table 4 in cell GI50 values for the growth inhibition of Jurkat cells are reported. The GI50 value is the concentration of a test compound needed to produce 50% growth inhibition in the cell type listed. In Table 4 the isolated yield of each synthetic step for the synthesis of corresponding compounds are also reported.
Panc-1 cells (Pancreatic cancer cell line) and Jurkat cells (T-cell leukemia) were treated with 12.5 μM of P5-H6 or 12.5 μM of mP5-H6a for 72 hours. The cell number was counted as described in Example 5.
Cell viability was determined by Cell Counting Kit-8 (CCK-8, Dojindo, Kumamoto, Japan) as described previously (31). Cell viability was calculated relative to the DMSO control. Cell cycle profile was analyzed by flow cytometry as described previously (32).

[1] = Tables 5, 14, read-out: In vitro (enzyme assay) IC50, GGTase I
[2] = Tables 3, 5, 7, read-out: In vitro (enzyme assay) IC50, GGTase I
[3] = Tables 4, 6, 7, read-out: Jurkat cell GI50
[4] = Tables 8-15, no unit printed there (Table 7 head: μM unless otherwise specified), read-out: In vitro (GGTase I IC50)
[5] = Tables 8-15, no unit printed there, read-out: Jurkat GI50

| SMILES | IC50 (GGTase-I; [2]) | IC50 (GGTase-I; [4]) | other results |
| --- | --- | --- | --- |
| CC(C)CC(NC(=O)C1=CCC(c2cccc(Br)c2)N(S(=O)(=O)c2ccc(F)cc2)C1c1cccc(Cl)c1)C(=O)O (stereo not shown) [P61-H06] | – | – | IC50 (GGTase-I; [1]): 0.21 µM; GI50 (Jurkat cells; Table 6, read-out: Jurkat cell GI50): 0.21 µM |
| O=C(NC(Cc1ccccc1)C(=O)O)C1=CCC(c2cccc(Br)c2)N(S(=O)(=O)c2ccc(Cl)cc2)C1c1cccc(Cl)c1 (stereo not shown) [P61-G07] | – | – | IC50 (GGTase-I; [1]): 0.07 µM |
| CC(C)C[C@H](NC(=O)C1=CC[C@@H](c2cccc(Br)c2)N(S(=O)(=O)c2ccc(Cl)cc2)C1c1cccc(Cl)c1)C(N)=O (stereo partly shown) [P61-C06] | 39.1 µM | – | GI50 (Jurkat cells; [3]): 3.15 µM |
| Cc1ccccc1S(=O)(=O)N1[C@@H](c2ccc(Cl)cc2)C(C(=O)O)=C[C@H]1C(C)CC(C)(C)C (stereo partly shown) | – | 3.4 µM | – |
| CC(C)CC(NC(=O)C1=CCC(c2cccc(Br)c2)N(S(=O)(=O)c2ccc(Cl)cc2)C1c1cccc(Cl)c1)C(=O)O (stereo not shown) [P61-G08] | – | – | IC50 (GGTase-I; [1]): 0.06 µM |
| COC(=O)C(CC(C)C)NC(=O)C1=CCC(c2cccc(Cl)c2)N(S(=O)(=O)c2ccc(Br)cc2)C1c1cccc(Cl)c1 (stereo not shown) [P67-A09] | > 20 µM | – | GI50 (Jurkat cells; [3]): 3.81 µM |
| CC(C)C[C@H](NC(=O)C1=CC[C@@H](c2cccc(Br)c2)N(S(=O)(=O)c2ccc(Cl)cc2)[C@H]1c1cccc(Cl)c1)C(N)=O | – | 39.1 µM | – |
| CC(C)CC(NC(=O)C1=CCC(c2cccc(Cl)c2)N(S(=O)(=O)c2ccc(Br)cc2)C1c1cccc(Cl)c1)C(=O)O (stereo not shown) [P61-E11] | – | – | IC50 (GGTase-I; [1]): 0.5 µM |
| CC(C)C[C@H](NC(=O)C1=CC[C@@H](c2cccc(Cl)c2)N(S(=O)(=O)c2ccc(Br)cc2)[C@H]1c1cccc(Cl)c1)C(N)=O [drawing 209] | – | > 20 µM | – |
| NC(=O)[C@H](Cc1ccccc1)NC(=O)C1=CC[C@@H](c2cccc(Br)c2)N(S(=O)(=O)c2ccc(Cl)cc2)C1c1cccc(Cl)c1 (stereo partly shown) [P61-F11] | – | – | IC50 (GGTase-I; [1]): 0.3 µM |
| CC(C)(C)[C@@H]1C=C(C(=O)O)[C@H](c2ccc(Br)cc2)N1S(=O)(=O)c1ccccc1Cl | – | 0.349 µM | – |
| Cc1ccccc1S(=O)(=O)N1[C@@H](c2ccc(Cl)c(Cl)c2)C(C(=O)O)=C[C@H]1C(C)(C)C | – | 0.363 µM | – |
| Cc1ccccc1S(=O)(=O)N1[C@@H](c2ccc(Cl)cc2)C(C(=O)O)=C[C@H]1C(C)(C)C [drawing 143] | – | 0.5 µM | GI50 (Jurkat cells; [5]): 20 µM |
| CC(C)C[C@H](NC(=O)C1=CC[C@@H](c2cccc(Cl)c2)N(S(=O)(=O)c2ccc(Br)cc2)[C@H]1c1cccc(Cl)c1)C(N)=O [P61-E08] | > 20 µM | – | – |
| NC(=O)[C@H](Cc1ccccc1)NC(=O)C1=CC[C@@H](c2cccc(Cl)c2)N(S(=O)(=O)c2ccc(Br)cc2)C1c1cccc(Br)c1 (stereo partly shown) [P61-E09] | > 20 µM | > 20 µM | – |
| CC(C)(C)[C@@H]1C=C(C(=O)N[C@@H](Cc2ccccc2)C(N)=O)[C@H](c2ccc(Cl)c(Cl)c2)N1S(=O)(=O)c1ccccc1Br [P61-E03] | > 20 µM | – | – |
| Cc1ccccc1S(=O)(=O)N1C(c2cccc(Cl)c2)C(C(N)=O)=CC[C@H]1c1ccc(Cl)cc1 (stereo partly shown) | – | > 20 µM | GI50 (Jurkat cells; [5]): 5.36 µM |
| CC(C)CC(NC(=O)C1=CCC(c2cccc(Cl)c2)N(S(=O)(=O)c2ccc(Cl)cc2)C1c1cccc(Cl)c1)C(=O)O (stereo not shown) [P61-H08] | – | – | IC50 (GGTase-I; [1]): 0.18 µM |
| Cc1ccccc1S(=O)(=O)N1C(c2cccc(Cl)c2)C(C(=O)O)=CC[C@H]1c1ccc(Cl)cc1 (stereo partly shown) [drawing 189] | – | 0.31 µM | – |
| CC(C)(C)[C@@H]1C=C(C(=O)N[C@@H](Cc2ccccc2)C(N)=O)[C@H](c2ccc(Cl)c(Cl)c2)N1S(=O)(=O)c1ccccc1Br [drawing 167] | – | > 20 µM | – |
| COC(=O)C(CC(C)C)NC(=O)C1=CCC(c2cccc(Cl)c2)N(S(=O)(=O)c2ccc(Cl)cc2)C1c1cccc(Cl)c1 (stereo not shown) [P67-A05] | > 20 µM | – | – |
| Cc1ccccc1S(=O)(=O)N1[C@@H](c2ccc(Cl)cc2)C(C(=O)O)=C[C@H]1C(C)(C)C [drawing 136] | 0.5 µM | – | GI50 (Jurkat cells; [3]): 20 µM |
| COC(=O)[C@H](CC(C)C)NC(=O)C1=CC[C@@H](c2ccc(Cl)cc2)N(S(=O)(=O)c2ccccc2C)[C@H]1c1cccc(Cl)c1 [P61-E07] | > 20 µM | – | GI50 (Jurkat cells; [3]): 3.53 µM |
